The record followed here is US20010010814A1, “[…] ENCODING PRO-APOPTOTIC BAX GENE AND USES THEREOF” (priority 1998, published 2001).

Like-named read-outs stand apart in the source and are kept apart here.

One assay deals with SW626 cells. Kind of assay: MTS cell viability assay, SW626. As to conditions: Homo sapiens, SW626, 48 h, read-out: IC50 of taxol. The class given is cell-based. On the procedure:
(§1) The replication-incompetent adenoviral type 5 recombinant vectors encoding bax (Ad/Bax), and Cre recombinase (Ad/Cre), were generated as described. Ad/LacZ, encoding the E. coli LacZ gene, was provided by Robert Gerald (The Center for Transgene Technology and Gene Therapy, Leuven. Belgium). All recombinant adenoviruses were propagated in 293 cells and purified by centrifugation in CsCl gradients by a standard protocol. For viral infection in dishes, the cells were plated in 6 or 96 wells the day before the experiment. The viruses were then added at a designed multiplicity of infection (moi) and incubated for 1 to 2 hours. […]
(§2) Cells were seeded in either 6-well or 96-well plates 24 hours before viral infection. […] Cell viability was determined using a calorimetric method with 3-(4,5-dimehtylthiazol-2-yl)-5-(3-carboxymethoxyphenyl)-2-(4-sulfophenyl)-2H-tetrazolium (MTS) according to the instructions of the manufacturer (Promega). […]
(§3) To determine the cytotoxic effects of Bax, five ovarian cancer cell lines were co-infected with Ad/Bax and Ad/Cre or Ad/lacZ and Ad/Cre at ratio of 5 to 1 at a total moi of 100. After 48 hours, cell viability was determined by MTS assays (FIG. 11). […]
(§4) Stable overexpression of Bax in some cancer cell lines synergizes the killing effect of chemotherapy or radiotherapy. […] Cell viability was measured by an MTS assay. […]

Assay [1] concerns primary ovarian cancer cells from ascites of patients. Kind of assay: MTS cell viability assay, primary ovarian cancer cells. Type of assay: cell-based, human. On the procedure:
Primary ovarian cancer cells were isolated by affinity purification from ascites obtained from patients with ovarian cancer. Fresh ascites was centrifuged to collect cells in suspension. The cells were then washed and resuspended in PBS with 0.1% BSA. The CC49 antibody (provided by Dr. Jeffrey Schlom, NIH, Bethesda, Md.), which specifically recognizes the pancarcinomatous antigen TAG-72, was added to the cell suspension at a concentration of 1 μg/10^7 cells, and incubated at 4° C. for one hour. To isolate the immuno-complex formed by the CC49 antibody and the TAG-72 expressing tumor cells, magnetic Dynabeads (Dynal Inc. Lake success, N.Y.) coated with a secondary anti-panmouse IgG antibody were added at a ratio of 4 beads/cell, according to the protocol of the manufacturer. The bead-targeted complexes were then washed and captured with a magnetic particle concentrator (Dynal Inc.). Finally, the purified cells were released from the beads by brief trypsinization and recovered in RPMI complete medium.
as §2

The next assay relates to SKOV3.ip1 cells. Kind of assay: MTS cell viability assay, SKOV3.ip1. Type of assay: cell-based. Particulars: Homo sapiens, 48 h, read-out: IC50 of taxol. On the procedure:
as §1, §2, §3, §4
On the technique in general: Formazan colour is commonly taken as a measure of viable cells.

Where [2] appears, read: combined treatment with Bax (Ad/Bax plus Ad/Cre, moi 100).

A word on the IC50: it is the concentration that inhibits the measured activity by half. Turning to `CC(=O)O[C@H]1C(=O)[C@@]2(C)[C@H]([C@H](OC(=O)c3ccccc3)[C@]3(O)C[C@H](OC(=O)[C@H](O)[C@@H](NC(=O)c4ccccc4)c4ccccc4)C(C)=C1C3(C)C)[C@]1(OC(C)=O)CO[C@@H]1C[C@@H]2O` [taxol], the IC50 was found to be 5 µg/mL with SW626 cells (setting [2]), 31 µg/mL in the assay with SW626 cells (control cells), 13 µg/mL in the assay with SKOV3.ip1 cells (setting [2]) and 39 µg/mL with SKOV3.ip1 cells (control cells). For the same molecule, the “cell death (MTS)” value is 15% in assay [1] (taxol 20 μg/ml alone, 48 hours); “over 50%” in assay [1] (taxol 20 μg/ml combined with Bax (Ad/Bax and Ad/Cre, 200 moi)).
